Among the data in ChEMBL document CHEMBL3745704, “Novel nonsecosteroidal VDR ligands with phenyl-pyrrolyl pentane skeleton for cancer therapy” (Eur J Med Chem, 2016) are IC50 and Activity values, retold here.

The term IC50 denotes the concentration that inhibits the measured activity by half. A low value points to higher potency.

Series [1] in a line: Antipoliferative activity against human Caco2 cells after 48 hrs by MTT assay. The format is functional, cell-based. The conditions noted are these: Caco-2, 48 h. In general terms: Formazan colour is commonly taken as a measure of viable cells.
The target in the next series is T1, Vitamin D3 receptor (Homo sapiens, UniProt P11473).
T1 sequence (P11473 whole entry): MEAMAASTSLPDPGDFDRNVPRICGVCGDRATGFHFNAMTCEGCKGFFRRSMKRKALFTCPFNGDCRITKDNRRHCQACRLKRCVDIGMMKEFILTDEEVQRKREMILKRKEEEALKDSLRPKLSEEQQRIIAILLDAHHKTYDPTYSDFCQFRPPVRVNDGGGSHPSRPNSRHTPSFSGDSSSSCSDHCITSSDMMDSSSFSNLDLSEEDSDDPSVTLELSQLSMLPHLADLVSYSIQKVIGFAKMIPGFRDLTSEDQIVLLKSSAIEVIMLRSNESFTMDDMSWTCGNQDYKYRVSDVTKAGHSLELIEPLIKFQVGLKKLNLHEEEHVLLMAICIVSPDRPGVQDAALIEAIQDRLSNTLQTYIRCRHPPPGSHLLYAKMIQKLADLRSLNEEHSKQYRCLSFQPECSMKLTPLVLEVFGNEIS
In words: Binding affinity to vitamin D3 receptor (unknown origin) after 4 hrs using fluormone VDR red by polar screen VDR competitor assay.

Series [2] has as its system Rattus norvegicus. The experiment in a line: Toxicity in rat assessed as hypercalcemic activity at 0.5 mg/kg/day administered for 7 days. The class given is organism-based. To be noted: in vivo, 168 h.
Series [3] concerns Rattus norvegicus. The experiment in a line: Toxicity in rat assessed as hypercalcemic activity at 10 mg/kg/day administered for 7 days. The format is organism-based. To be noted: in vivo, 168 h.
A further series has as its system HepG2. The experiment in a line: Antipoliferative activity against human HepG2 cells after 48 hrs by MTT assay. The format is functional, cell-based. The conditions noted are these: HepG2, 48 h.
The next series has as its system MCF7. The experiment in a line: Antipoliferative activity against human MCF7 cells after 48 hrs by MTT assay. To be noted: MCF7, 48 h. The class given is functional, cell-based.
In series [4] the test system is Rattus norvegicus. The experiment in a line: Toxicity in rat assessed as hypercalcemic activity at 30 mg/kg/day administered for 7 days. The format is organism-based. The conditions noted are these: in vivo, 168 h.
The nature of series [5]: Cytotoxicity against human L02 cells after 48 hrs by MTT assay. The class given is cell-based. The conditions noted are these: L02, 48 h.
A short description of series [6]: Antipoliferative activity against human PC3 cells after 48 hrs by MTT assay. The format is functional, cell-based. To be noted: PC-3, 48 h.
In series [7] the test system is Rattus norvegicus. The experiment in a line: Toxicity in rat assessed as serum calcium level at 0.5 ug/kg/day administered for 7 days (reference value: 7.25 mg/dl). The format is organism-based. To be noted: in vivo, 0.0005 mg/kg, 168 h.

On to `CCn1c(C(=O)NCCCN2CCOCC2)ccc1C(CC)(CC)c1ccc(OCC(O)C(C)(C)C)c(C)c1` (configuration not stated), for which the IC50 in series [1] is 5.9 µM; at Vitamin D3 receptor, 1.19 µM; with HepG2 it was 1.29 µM; with MCF7, 2.07 µM; in [5], 0.81 µM; in [6] it was 0.0079 µM. The Activity entry with Rattus norvegicus [2], with Rattus norvegicus [3] and with Rattus norvegicus [4] was “Non-toxic” in each case.
As for `CCn1c(C(=O)NCCCN(C)C)ccc1C(CC)(CC)c1ccc(OCC(O)C(C)(C)C)c(C)c1` (configuration not stated), the IC50 in series [1] came out at 1.9 µM; on Vitamin D3 receptor, 0.197 µM; in the series with HepG2, 0.36 µM; with MCF7 it was 0.49 µM; in [5], 0.47 µM; in series [6] it was 3.1 µM.
With `CCn1c(C(=O)Oc2ccc(CCO)cc2)ccc1C(CC)(CC)c1ccc(OCC(O)C(C)(C)C)c(C)c1` (configuration not stated), the IC50 in [1] is above 50 µM; with HepG2 it was above 50 µM; with MCF7, above 50 µM; in [5], 22.7 µM; in series [6], 6.3 µM.
On to `CCn1c(C(=O)N[C@@H](C)CO)ccc1C(CC)(CC)c1ccc(OCC(O)C(C)(C)C)c(C)c1` (some centres not stated), for which the IC50 in series [1] is above 50 µM; in the series on HepG2, 47.6 µM; with MCF7, 2.8 µM; in series [5], 17.3 µM; in series [6], 17.5 µM. Further, the Activity result in the series with Rattus norvegicus [4] was “Non-toxic”.
For the compound `CCN(CC)CCNC(=O)c1ccc(C(CC)(CC)c2ccc(OCC(O)C(C)(C)C)c(C)c2)n1CC` (configuration not stated), the 50% inhibitory concentration (IC50) in series [1] came out at 2.31 µM; in the series on HepG2, 0.49 µM; with MCF7 it was 0.69 µM; in [5] it was 2.5 µM; in [6], 0.22 µM.
The like results for `CCn1c(C(=O)NCCCN(C)C)ccc1C(CC)(CC)c1ccc(OCC(=O)C(C)(C)C)c(C)c1` were, in that order, 1.4 µM, 0.96 µM, 0.34 µM, 0.67 µM and 1.6 µM.
In the case of `CCn1c(C(=O)N(CCC#N)CCC#N)ccc1C(CC)(CC)c1ccc(OCC(O)C(C)(C)C)c(C)c1` (configuration not stated), the half-maximal inhibitory concentration (IC50) is 7.1 µM in [1]; above 10 µM at Vitamin D3 receptor; 42 µM in the series on HepG2; 0.48 µM in the series with MCF7; 1.7 µM in [5]; 7.8 µM in series [6].
For the compound `CCn1c(C(=O)NCCN)ccc1C(CC)(CC)c1ccc(OCC(O)C(C)(C)C)c(C)c1` (configuration not stated), the IC50 in series [1] came to 1 µM; on Vitamin D3 receptor, 0.194 µM; in the series with HepG2 it was 0.176 µM; in the series on MCF7, 0.0059 µM; in [5] it was 2.4 µM; in series [6] it was 0.94 µM. Moreover, the Activity entry with Rattus norvegicus [2], in the series on Rattus norvegicus [3] and in the series with Rattus norvegicus [4] was “Non-toxic” each time.
For `CCn1c(C(=O)NCCCN2CCOCC2)ccc1C(CC)(CC)c1ccc(OCC(=O)C(C)(C)C)c(C)c1`, the IC50 is 3.6 µM in series [1]; 3.52 µM at Vitamin D3 receptor; 1.6 µM in the series on HepG2; 5.2 µM with MCF7; 0.31 µM in [5]; 0.011 µM in [6].
On to `CCn1c(C(=O)NCCN)ccc1C(CC)(CC)c1ccc(OCC(=O)C(C)(C)C)c(C)c1`, for which the 50% inhibitory concentration (IC50) in series [1] is 1.9 µM; at Vitamin D3 receptor, 1.01 µM; in the series on HepG2, 0.18 µM; in the series with MCF7, 0.075 µM; in series [5] it was 2.5 µM; in series [6] it was 0.48 µM.
Consider `C=C1/C(=C\C=C2/CCC[C@]3(C)[C@@H]([C@H](C)CCCC(C)(C)O)CC[C@@H]23)C[C@@H](O)C[C@@H]1O` [CALCITRIOL], for which, in the series on Rattus norvegicus [7], the Activity is 13.11 mg/dL.
Regarding `CC[C@@H](C)[C@H](NC(=O)c1ccc(C(CC)(CC)c2ccc(OCC(=O)C(C)(C)C)c(C)c2)n1CC)C(=O)O`, the IC50 in [1] is 4.5 µM; at Vitamin D3 receptor it was 0.564 µM; in the series with HepG2 it was 0.247 µM; in the series with MCF7, 0.16 µM; in series [5], 1.5 µM; in series [6], 1.6 µM.
In the case of `CCN(CC)CCNC(=O)c1ccc(C(CC)(CC)c2ccc(OCC(=O)C(C)(C)C)c(C)c2)n1CC`, the IC50 in series [1] is 1.6 µM; in the series with HepG2, 0.62 µM; with MCF7 it was 0.69 µM; in series [5], 2.5 µM; in series [6] it was 0.03 µM.
On to `CCC(CC)(c1ccc(OCC(=O)C(C)(C)C)c(C)c1)c1ccc(OCC(=O)C(C)(C)C)c(C)c1`, for which the half-maximal inhibitory concentration (IC50) in [1] was 16.9 µM; in the series on HepG2 it was above 50 µM; in the series on MCF7, 7.8 µM; in series [5], 5.1 µM; in series [6], above 50 µM. Further, the Activity entry in the series with Rattus norvegicus [4] is “Non-toxic”.
On to `CCn1c(C(=O)NCCN(C)C)ccc1C(CC)(CC)c1ccc(OCC(=O)C(C)(C)C)c(C)c1`, for which the half-maximal inhibitory concentration (IC50) in [1] was found to be 1.6 µM; with HepG2 it was 2.3 µM; with MCF7, 0.52 µM; in series [5] it was 2.5 µM; in series [6] it was 2.3 µM.
For `CCn1c(C(=O)NCCN(C)C)ccc1C(CC)(CC)c1ccc(OCC(O)C(C)(C)C)c(C)c1` (configuration not stated), the IC50 was 1.3 µM in series [1]; 0.87 µM in the series on HepG2; 0.66 µM in the series on MCF7; 2.6 µM in series [5]; 1.63 µM in series [6].
On Vitamin D3 receptor, `CCOc1ccc(NC(=O)c2ccc(C(CC)(CC)c3ccc(OCC(O)C(C)(C)C)c(C)c3)n2CC)cc1` (configuration not stated) gave an IC50 of 9.25 µM.
As for `C=CCN(C)C(=O)c1ccc(C(CC)(CC)c2ccc(OCC(O)C(C)(C)C)c(C)c2)n1CC` (configuration not stated), the IC50 was above 50 µM in series [1]; above 50 µM with HepG2; above 50 µM in the series on MCF7; 6.3 µM in series [5]; 25.9 µM in [6].
For the compound `C#CC(C)OC(=O)c1ccc(C(CC)(CC)c2ccc(OCC(O)C(C)(C)C)c(C)c2)n1CC` (configuration not stated), the IC50 in [1] is above 50 µM; in the series with HepG2, above 50 µM; with MCF7, above 50 µM; in series [5] it was 23.7 µM; in [6], 38.2 µM.
In the case of `C#CCNC(=O)c1ccc(C(CC)(CC)c2ccc(OCC(O)C(C)(C)C)c(C)c2)n1CC` (configuration not stated), the concentration for half-maximal inhibition (IC50) is 39.1 µM in series [1]; above 10 µM on Vitamin D3 receptor; above 50 µM in the series with HepG2; above 50 µM in the series with MCF7; 4.4 µM in series [5]; 16.2 µM in [6].
For the compound `CC[C@@H](C)[C@H](NC(=O)c1ccc(C(CC)(CC)c2ccc(OCC(O)C(C)(C)C)c(C)c2)n1CC)C(=O)O` (some centres not stated), the 50% inhibitory concentration (IC50) came out at 3.4 µM in [1]; 0.389 µM at Vitamin D3 receptor; 0.127 µM with HepG2; 2 µM with MCF7; 1.4 µM in [5]; 1.9 µM in [6].
`CCn1c(C(=O)NCC(OC)OC)ccc1C(CC)(CC)c1ccc(OCC(O)C(C)(C)C)c(C)c1` (configuration not stated): the half-maximal inhibitory concentration (IC50) is above 50 µM in series [1]; 5.23 µM on Vitamin D3 receptor; 23.2 µM with HepG2; above 50 µM in the series on MCF7; 22.2 µM in series [5]; 14.6 µM in [6].
With `CCn1c(C(=O)N(C)CC(=O)O)ccc1C(CC)(CC)c1ccc(OCC(O)C(C)(C)C)c(C)c1` (configuration not stated), the IC50 was determined as 31.9 µM in series [1]; 17.1 µM in the series with HepG2; 25.4 µM in the series with MCF7; 32.6 µM in series [5]; 23.9 µM in [6].
The like results for `CCn1c(C(=O)OCc2ccc(F)cc2)ccc1C(CC)(CC)c1ccc(OCC(O)C(C)(C)C)c(C)c1` (configuration not stated) were, in that order, above 50 µM, above 50 µM, above 50 µM, 14.9 µM and above 50 µM.
As to `CCN(CC)CCCNC(=O)c1ccc(C(CC)(CC)c2ccc(OCC(=O)C(C)(C)C)c(C)c2)n1CC`, the IC50 in [1] came to 1 µM; at Vitamin D3 receptor, 0.863 µM; in the series with HepG2, 0.18 µM; in the series on MCF7, 0.53 µM; in series [5], 2.3 µM; in series [6], 1.8 µM.
For the compound `CCN(CC)CCCNC(=O)c1ccc(C(CC)(CC)c2ccc(OCC(O)C(C)(C)C)c(C)c2)n1CC` (configuration not stated), the IC50 in series [1] came out at 1.8 µM; on Vitamin D3 receptor it was 0.0711 µM; in the series on HepG2, 1.1 µM; in the series with MCF7, 0.19 µM; in series [5] it was 2.5 µM; in series [6] it was 2.5 µM.
Take `CCn1c(C(=O)N(C)CC(=O)O)ccc1C(CC)(CC)c1ccc(OCC(=O)C(C)(C)C)c(C)c1`: the IC50 amounted to 35.9 µM in series [1]; 25.2 µM with HepG2; 28.6 µM in the series with MCF7; 8.7 µM in [5]; 18.4 µM in series [6].
The corresponding values for `CCn1c(C(=O)N(C)CCC#N)ccc1C(CC)(CC)c1ccc(OCC(O)C(C)(C)C)c(C)c1` (configuration not stated) are above 50 µM, above 50 µM, above 50 µM, 14.9 µM and 1.7 µM.
With `CCOC(=O)CN(C)C(=O)c1ccc(C(CC)(CC)c2ccc(OCC(O)C(C)(C)C)c(C)c2)n1CC` (configuration not stated), the concentration for half-maximal inhibition (IC50) is 12.2 µM in series [1]; above 50 µM in the series with HepG2; 9.2 µM with MCF7; 10.1 µM in [5]; 25.5 µM in series [6].
